Experimental data reported in article PMC4486092 (Clinical Pharmacokinetics, 2015).

Key:
[1] = Population pharmacokinetic analysis of linagliptin plasma concentrations; assay type: in vivo, human (patients with T2DM)
[2] = single rising-dose study, healthy volunteers, up to a dose of 600 mg ref 5; cited from earlier work
[3] = not estimated, fixed to estimates of the previous model ref 15; cited from earlier work

change in exposure, combination of covariate effects (largest decrease) ([1]; 5 mg, person, 117 kg, GGT 9.4 U/L, pre-dose DPP-4 activity 8,025 RFU): −26% | increase in linagliptin exposure, impact of weight ([1]; 5th percentile of weight): 5.9% | increase in linagliptin exposure with age ([1]; 73-year-old vs 42-year-old patient (95th and 5th percentile of age)): 13.8% | decrease in linagliptin exposure, impact of weight ([1]; 95th percentile of weight): 8.7% | Weight_F: percentage change in F per kg change from median weight of population ([1]; covariate effect, median weight 88 kg, final model): −0.958 | Dose_Ka: percentage change in Ka per dose unit change from the 5 mg dose group ([1]; covariate effect, final model): −6.51 | CL/F: typical clearance of the unbound concentration ([1]; final model): 258 L/h | πF: intra-individual variability in relative bioavailability ([1]; final model): 40.0 CV % | ωCL: inter-individual variability in clearance of the unbound concentration ([1]; final model): 27.5 CV % | ωF: inter-individual variability in relative bioavailability ([1]; final model): 47.4 CV % | ωKa: inter-individual variability in the absorption rate constant ([1]; final model): 76.4 CV % | ωVC: inter-individual variability in the central volume of distribution ([1]; final model): 24.4 CV % | Vd/F ([1]; human, in vivo): 715 L | Ka,1: typical absorption rate constant study 1 ([1]; powder in bottle formulation, oral): 0.933 h⁻¹ | linear decrease in bioavailability for every 1 kg increase in weight ([1]; relative bioavailability, oral): 0.96% | Ka,2: typical absorption rate constant study 2 ([1]; tablet formulation 1, oral): 0.795 h⁻¹ | Ka,3: typical absorption rate constant studies 3/4 ([1]; tablet formulation 2, oral): 0.441 h⁻¹
Compound: CC#CCn1c(N2CCC[C@@H](N)C2)nc2c1c(=O)n(Cc1nc(C)c3ccccc3n1)c(=O)n2C [linagliptin, (R)-8-(3-Amino-piperidin-1-yl)-7-but-2-ynyl-3-methyl-1-(4-methyl-quinazolin-2-ylmethyl)-3,7-dihydro-purine-2,6-dione]
tolerability of a single dose [2]: well tolerated | VP/F: typical volume of distribution of the peripheral compartment [3]: 1,650 L
